Our source for the Kb values is patent US8691846B2, “Piperidine sulphonamide derivatives” (Hoffmann-La Roche, Inc., priority 2008, dated 2014).

SMILES strings stand for the structures. Read-outs that look alike come from different tables or passages of the source.

One may read the Kb as the equilibrium dissociation constant of an antagonist, usually derived from a functional assay.

The assay concerns the target T1, human orexin-2 (hOX2) receptors (Homo sapiens, UniProt O43614).
T1 construct: expressed in transfected cells
T1 sequence (O43614 1-444): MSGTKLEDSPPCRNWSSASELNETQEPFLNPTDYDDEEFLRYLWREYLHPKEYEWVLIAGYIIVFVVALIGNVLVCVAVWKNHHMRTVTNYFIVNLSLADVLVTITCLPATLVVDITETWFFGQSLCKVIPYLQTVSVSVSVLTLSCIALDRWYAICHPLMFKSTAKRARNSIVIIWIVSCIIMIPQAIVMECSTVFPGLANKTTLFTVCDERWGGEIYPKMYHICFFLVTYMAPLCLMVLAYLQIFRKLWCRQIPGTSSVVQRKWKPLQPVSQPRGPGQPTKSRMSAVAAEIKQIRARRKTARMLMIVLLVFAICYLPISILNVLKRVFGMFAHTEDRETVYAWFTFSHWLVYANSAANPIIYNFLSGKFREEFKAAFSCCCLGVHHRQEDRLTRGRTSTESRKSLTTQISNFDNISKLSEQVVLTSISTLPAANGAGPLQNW
Nature of the assay: Intracellular Ca2+ mobilization assay (FLIPR), antagonism of orexin-A in CHO(dHFr-) cells expressing hOX2. Type of assay: cell-based. The settings on record: CHO(dHFr-)-OX2R cells, orexin-A at EC80 as agonist, Kb=IC50/(1+[A]/EC50). On the procedure: Intracellular Ca^2+ Mobilization Assay
The Chinese Hamster Ovary (dHFr−) mutant cell line stably expressing human orexin-1 (hOX1) or human orexin-2 (hOX2) receptors were maintained in Dulbecco's Modified Eagle Medium (1×) with GlutaMax™ 1, 4500 mg/L D-Glucose and Sodium Pyruvate (Catalog No. 31966-021, Invitrogen, Carlsbad, Calif.), 5% dialyzed fetal calf serum (Catalog No. 26400-044), 100 μg/ml penicillin and 100 μg/ml streptomycin. The cells were seeded at 5×10^4 cells/well in the poly-D-lysine treated, 96-well, black/clear-bottomed plates (Catalog No. BD356640, BD Biosciences, Palo Alto, Calif.). 24 h later, the cells were loaded for 1 h at 37° C. with 4 μM Flou-4 acetoxymethyl ester (Catalog No. F-14202, Molecular Probes, Eugene, Oreg.) in FLIPR buffer (1×HBSS, 20 mM HEPES, 2.5 mM Probenecid). Hanks' Balanced Salt Solution (HBSS) (10×) (catalog No. 14065-049) and HEPES (1M) (catalog No. 15630-056) were purchased from Invitrogen, Carlsbad, Calif. Probenecid (250 mM) (catalog No. P8761) was from Sigma, Buchs, Switzerland. The cells were washed five times with FLIPR buffer to remove excess dye and intracellular calcium mobilization, [Ca^2′]I were measured using a Fluorometric Imaging Plate Reader (FLIPR-96, Molecular Devices, Menlo Park, Calif.) as described previously (Malherbe et al., Mol. Pharmacol., 64, 823-832, 2003). Orexin A (catalog No. 1455, Toris Cookson Ltd, Bristol, UK) was used as agonist. Orexin A (50 mM stock solution in DMSO) was diluted in FLIPR buffer+0.1% BSA. The EC50 and EC80 values of orexin-A were measured daily from standard agonist concentration-response curves in CHO(dHFr−)-OX1R and -OX2R cell lines. All compounds were dissolved in 100% DMSO Inhibition curves were determined by addition of 11 concentrations (0.0001-10 μM) of inhibitory compounds and using EC80 value of orexin-A as agonist (a concentration which gave 80% of max agonist response, determined daily). The antagonists were applied 25 min (incubation at 37° C.) before the application of the agonist. Responses were measured as peak increase in fluorescence minus basal, normalized to the maximal stimulatory effect induced by EC80 value of orexin-A or orexin-B Inhibition curves were fitted according to the Hill equation: y=100/(1+(x/IC50)^nH), where nH=slope factor using Excel-fit 4 software (Microsoft).
Kb values were calculated according to the following equation Kb=IC50/(1+[A]/EC50) where A is the concentration of agonist added which is very close to agonist EC80 value, and IC50 and EC50 values were derived from the antagonist inhibition and orexin-A or B agonist curves, respectively.
(Calcium flux is commonly read through the fluorescence of an indicator in the cells.)

On to `O=C(C1CCCN(S(=O)(=O)c2ccccc2Cl)C1)N1CCCC1c1ccc(F)cc1` (centres unmarked) [Example 3, [1-(2-Chloro-benzenesulfonyl)-piperidin-3-yl]-[2-(4-fluoro-phenyl)-pyrrolidin-1-yl]-methanone], for which the Kb (read-out: Kb (μM) OX2R (human)) amounted to 0.0788 µM.

As to `O=C(C1CCCN(S(=O)(=O)c2ccccc2Cl)C1)N1CCCCC1c1ccccc1` (centres unmarked) [Example 4, [1-(2-Chloro-benzenesulfonyl)-piperidin-3-yl]-(2-phenyl-piperidin-1-yl)-methanone], the Kb (Table 1, read-out: Kb hOx2) amounted to 0.118 µM.

For the compound `O=C(C1CCCN(S(=O)(=O)c2cccc(Cl)c2)C1)N1CCCCC1c1ccccc1` (centres unmarked) [Example 5, [1-(3-Chloro-benzenesulfonyl)-piperidin-3-yl]-(2-phenyl-piperidin-1-yl)-methanone], the Kb (Table 1, read-out: Kb hOx2) worked out at 0.55 µM.

Consider `O=C(C1CCCN(S(=O)(=O)c2ccc(F)cc2)C1)N1CCCCC1c1ccccc1` (centres unmarked) [Example 6, [1-(4-Fluoro-benzenesulfonyl)-piperidin-3-yl]-(2-phenyl-piperidin-1-yl)-methanone], for which, where the note is “Table 1, read-out: Kb hOx2”, the Kb came to 0.756 µM.

For the compound `O=C(C1CCCN(S(=O)(=O)c2ccccc2Cl)C1)N1CCCC1c1ccccc1` (centres unmarked) [Example 7, [1-(2-Chloro-benzenesulfonyl)-piperidin-3-yl]-(2-phenyl-pyrrolidin-1-yl)-methanone], the Kb (read-out: Kb (μM) OX2R (human)) stood at 0.02 µM.

Consider `O=C(C1CCCN(S(=O)(=O)c2cccc(Cl)c2)C1)N1CCCC1c1ccccc1` (centres unmarked) [Example 8, [1-(3-Chloro-benzenesulfonyl)-piperidin-3-yl]-(2-phenyl-pyrrolidin-1-yl)-methanone], for which the Kb (read-out: Kb (μM) OX2R (human)) worked out at 0.0219 µM.

As for `COc1cccc(S(=O)(=O)N2CCCC(C(=O)N3CCCC3c3ccccc3)C2)c1` (centres unmarked) [Example 9, [1-(3-Methoxy-benzenesulfonyl)-piperidin-3-yl]-(2-phenyl-pyrrolidin-1-yl)-methanone], the Kb (Table 1, read-out: Kb hOx2) worked out at 0.122 µM.

Turning to `COc1ccccc1S(=O)(=O)N1CCCC(C(=O)N2CCCCC2c2ccccc2)C1` (centres unmarked) [Example 10, [1-(2-Methoxy-benzenesulfonyl)-piperidin-3-yl]-(2-phenyl-piperidin-1-yl)-methanone], under “read-out: Kb (μM) OX2R (human)”, the Kb was 0.0226 µM.

Consider `COc1ccccc1S(=O)(=O)N1CCCC(C(=O)N2CCCC2c2ccccc2)C1` (centres unmarked) [Example 11, [1-(2-Methoxy-benzenesulfonyl)-piperidin-3-yl]-(2-phenyl-pyrrolidin-1-yl)-methanone], for which the Kb (read-out: Kb (μM) OX2R (human)) amounted to 0.0053 µM.

`O=C(C1CCCN(S(=O)(=O)c2ccccc2)C1)N1CCCCC1c1ccccc1` (centres unmarked) [Example 12, (1-Benzenesulfonyl-piperidin-3-yl)-(2-phenyl-piperidin-1-yl)-methanone]: where the note is “Table 1, read-out: Kb hOx2”, the Kb was 0.309 µM.

As to `O=C(C1CCCN(S(=O)(=O)c2ccc(F)cc2)C1)N1CCCC1c1ccccc1` (centres unmarked) [Example 13, [1-(4-Fluoro-benzenesulfonyl)-piperidin-3-yl]-(2-phenyl-pyrrolidin-1-yl)-methanone], the antagonist dissociation constant (Kb) (Table 1, read-out: Kb hOx2) was found to be 0.334 µM.

With `COc1ccc(Cl)cc1S(=O)(=O)N1CCCC(C(=O)N2CCCC2c2ccccc2)C1` (centres unmarked) [Example 14, [1-(5-Chloro-2-methoxy-benzenesulfonyl)-piperidin-3-yl]-(2-phenyl-pyrrolidin-1-yl)-methanone], the Kb (read-out: Kb (μM) OX2R (human)) was 0.0138 µM.

As to `O=C(C1CCCN(S(=O)(=O)c2ccccc2)C1)N1CCCC1c1ccccc1` (centres unmarked) [Example 15, (1-Benzenesulfonyl-piperidin-3-yl)-(2-phenyl-pyrrolidin-1-yl)-methanone], where the note is “Table 1, read-out: Kb hOx2”, the Kb was 0.258 µM.

For `COc1ccc(Cl)cc1S(=O)(=O)N1CCCC(C(=O)N2CCCCC2c2ccccc2)C1` (centres unmarked) [Example 16, [1-(5-Chloro-2-methoxy-benzenesulfonyl)-piperidin-3-yl]-(2-phenyl-piperidin-1-yl)-methanone], for the setting “read-out: Kb (μM) OX2R (human)”, the Kb was determined as 0.0592 µM.

With `O=C(C1CCCN(S(=O)(=O)c2ccccc2Cl)C1)N1CCCC1c1ccccc1Cl` (centres unmarked) [Example 17, [1-(2-Chloro-benzenesulfonyl)-piperidin-3-yl]-[2-(2-chloro-phenyl)-pyrrolidin-1-yl]-methanone], under “read-out: Kb (μM) OX2R (human)”, the Kb worked out at 0.0113 µM.

On to `O=C(C1CCCN(S(=O)(=O)c2ccccc2Cl)C1)N1CCCC1c1ccc(Cl)c(Cl)c1` (centres unmarked) [Example 18, [1-(2-Chloro-benzenesulfonyl)-piperidin-3-yl]-[2-(3,4-dichloro-phenyl)-pyrrolidin-1-yl]-methanone], for which, under “Table 1, read-out: Kb hOx2”, the Kb was found to be 0.75 µM.

Consider `O=C(C1CCCN(S(=O)(=O)c2ccccc2Cl)C1)N1CCCC1c1cc(Cl)cc(Cl)c1` (centres unmarked) [Example 19, [1-(2-Chloro-benzenesulfonyl)-piperidin-3-yl]-[2-(3,5-dichloro-phenyl)-pyrrolidin-1-yl]-methanone], for which, for the setting “Table 1, read-out: Kb hOx2”, the Kb amounted to 0.67 µM.
